{"source": "patent US20240269321A1", "about": "“PREPARATION AND STORAGE OF LIPOSOMAL RNA FORMULATIONS SUITABLE FOR THERAPY” (BioNTech SE, priority 2020, published 2024)", "key": {"[1]": {"test": "DOPE solubility in ethanol (HPLC)", "assay_type": "physicochemical", "method": "DOPE and DOPE/DOTMA solubility in ethanol was investigated by preparing 300 mM DOPE or 330 mM DOPE/DOTMA (66:33) solutions in ethanol. The lipids were dissolved by incubating the lipid solutions at 37° C. for 20 minutes. The DOPE solutions were centrifuged at 17000 G for 1h and the DOPE concentration was measured in the supernatant by HPLC. The DOTMA/DOPE solutions were filtered through a 0.22 μm PES syringe filter and the lipid concentration was measured in the filtrate by HPLC. Lipid concentration in the different liposome formulations were measured by HPLC (Agilent technologies. Santa Clara. USA) using a Sunfire C18 2.5 μm 4.6×75 mm column (Waters. Massachusetts. USA) and a wave length of 205 nm. Mobile phase A was a mixture of 70% methanol/30% isopropanol/0.1% TFA, mobile phase B was a mixture of 55% methanol/15% isopropanol/30% water/0.1% TFA. Liposomes samples were or not diluted with water to 3 mM total lipid concentration. It has been tested if DOPE-containing solutions of higher concentration can be prepared (in the supersaturated state) and used for ethanol injection for liposome manufacturing (next section)."}, "[2]": {"test": "Freezing of RNA lipoplexes with cryoprotectants and NaCl (particle size)", "assay_type": "physicochemical", "conditions": "for preservation of particle size after a single freezing step: 20% (w/v) cryoprotectant, 0 to 60 mM NaCl, −30° C.", "text": "Methods: Different compounds representative for monosaccharides (glucose and sorbitol), disaccharides (sucrose and trehalose), amino acids (arginine, prolin), triols (glycerin) as well as cryoprotectant systems containing mixtures of different sugars (mannitol and sucrose) were investigated in order to identify suited cryoprotectants (FIGS. 25 and 26). Therefore RNA lipoplexes were frozen in the presence of increasing concentration of these compounds. In order to identify minimum content of cryoprotectant at a certain concentration of NaCl, RNA lipoplexes were frozen in the presence of increasing amounts of sucrose or trehalose as representative cryoprotectants (Table 7). The samples were initially frozen a single time in order to determine the concentration range of cryoprotectant to be investigated in detail. In a third experiment, the efficacy of stabilization of the particle size was challenged by freezing of the RNA lipoplexes up to 10 times in the presence of the cryoprotectant trehalose (Table 8)."}, "[3]": {"test": "RNA integrity in RNA lipoplexes, accelerated storage at 25° C.", "conditions": "for stabilization of the RNA integrity by buffer system: 5 mM buffer, pH 6.0-7.0, liposomes with 2 mM acetic acid; for stability of the RNA in RNA lipoplexes by buffer system: 10% sucrose, 6.45 mM NaCl, liposomes with 5 mM acetic acid", "method": "RNA lipoplexes are incubated under accelerated conditions (25° C.) in the presence of an exemplarily cryoprotectant. RNA integrity was analyzed by capillary electrophoresis over 60 days. Additionally, RNA lipoplexes are incubated under at the anticipated storage conditions (−15° C.) in the presence of an exemplarily cryoprotectant for up to two years. RNA integrity was analyzed by capillary electrophoresis.\nThe respective RNA lipoplexes were investigated under accelerated conditions (25° C.) and in the frozen state (−15° C.).\nRNA lipoplexes were formed with liposomes containing 2 mM of acetic acid. The respective RNA lipoplexes were investigated under accelerated conditions (25° C.) and in the frozen state (−15° C.).\nMethod: All RNA lipoplexes were automatically prepared in a single batch and the different concentrations of HEPES were adjusted by the addition of a cryoprotectant solution containing different amounts of HEPES. Particle sizes and polydispersity of RNA lipolexes were analyzed by photon correlation spectroscopy (PCS) measurements. Additionally, the RNA integrity was analyzed by capillary electrophoresis and the pH was measured.\nIn the following study, the concentration of HEPES which is required for stabilization of the pH of the RNA lipoplexes was investigated. RNA lipoplexes were formed with liposomes containing 5 mM of acetic acid and different concentrations of HEPES were adjusted by using different cryoprotectant solutions and the respective RNA lipoplexes were investigated under accelerated conditions (25° C.). The pH range from pH 6.2 to 7.2 was tested.\nIn the following study, the long-term stability of RNA lipoplexes in the frozen state was investigated with the combination of the reduced concentration of NaCl and Sucrose in the presence of either HEPES or Histidine as a buffering agent at a pH of 6.5.\nTo analyze the RNA integrity, the RNA had to be isolated from the RNA lipoplexes. Cryoprotected RNA lipoplexes were mixed with RNeasy kit (Qiagen) RLT buffer in a ratio of 1 to 3.5. Then ethanol was added in a ratio of 1 part ethanol to 1.8 parts LPX-RLT.\nThe further RNA isolation was done using the RNeasy Mini Kit protocol and the RNeasy Mini Kit from Qiagen.\nThe integrity of the RNA was analyzed using a 48 capillary Fragment Analyzer Automated System by Advanced Analytical (AATI) according to the manufacturers instructions. Results were analyzed via PROSize 2.0 version 2.0.051 data analysis software.\nMethod: BM1 RNA lipoplexes were prepared as described above. All other RNA lipoplexes were prepared as described above with liposomes containing 5 mM acetic acid.\nBM1 RNA lipoplexes were cryoprotected and RNA concentration adjusted as described above. All other RNA lipoplexes were cryoprotected by adding cryoprotection buffer containing the respective buffer substance in a ratio of 1 to 6.7. Final pH values were titrated by adding HCl or NaOH to the cryoprotected RNA lipoplexes, ending up to the following compositions:\nTitrated, cryoprotected RNA lipoplexes were filled into 10R glass vials and stored at ambient temperature (25° C.) for at least 61 days. At defined points in time, two vials per group were collected and the RNA integrity was determined."}, "[4]": {"method": "The mean value calculated from the first DOPE integrity values of the samples directly after manufacturing (0 month) was set to 1 as the initial integrity value of the respective study arm. The following values were normalized to this starting value.\nMethod: Liposomes were prepared as described above. To acidify the liposomes, different volumes of a 1 M stock solution of acetic acid was added to the liposomes with a total lipid concentration of 0.9 mM. After that, liposomes were stored at different acetic acid concentrations in a range from 0 mM to 3 mM up to a maximum of 6 months at different temperatures (4° C., 25° C. and 40° C.)."}, "[5]": {"test": "RNA integrity in RNA lipoplexes at 40° C. (capillary electrophoresis)", "conditions": "21 days, no cryoprotectant", "experimental": "RNA lipoplexes are initially incubated under stress conditions (40° C.) in the absence of cryoprotectant. RNA integrity was analyzed by capillary electrophoresis over 21 days. In order to investigate the optimum pH range in the presence of an exemplary cryoprotectant, RNA lipoplexes were incubated in the presence of HEPES and sucrose at 40° C. and RNA integrity was analyzed for 21 days.\nRNA integrity was analyzed as a key physicochemical parameter over 21 days."}, "[6]": {"method": "The samples were frozen at −30° C. and then transferred to the respective temperature for long-term storage (either −15 or −30° C.). After defined storage time, samples were analyzed and preservation of the colloidal stability was analyzed by measuring the particle size using PCS. These experiments were performed at a total RNA concentration of 0.05 mg/mL.\nMethod: To investigate the minimum content of representative cryoprotectants as sucrose, trehalose, glucose and mixtures including dextran required for long-term storage at −20° C., RNA lipoplexes were frozen at a fixed cryoprotectant content in combination with varying NaCl concentrations. For monomeric or dimeric molecular cryoprotectants as glucose, sucrose, and trehalose a concentration of 22% (w/v) was adjusted. These formulations were frozen and stored at −15 to −40° C. and long-term stability was investigated by measuring the particle size using PCS after defined storage time.\nThe samples were frozen and stored at −20° C. After defined storage time, samples were analyzed and preservation of the colloidal stability was analyzed by measuring the particle size.", "remark": "listed apart in the source"}, "[7]": {"test": "Storage of drug product at −15° C., particle size and AF4", "assay_type": "physicochemical", "conditions": "derived from AF4 data, worst-case conditions, 12 months", "method": "The AF4 method is a fractionation technique for characterization and separation of nanoparticles, polymers and proteins based on their diffusion coefficient. The separation is achieved using hydrodynamic forces applied in the flat separation channel. Within a channel, a parabolic flow profile is created due to the laminar flow of mobile phase against which a perpendicular force field is applied. The separation was performed by an elution inject program with an inject flow of 0.2 mL/min, detector flow of 0.5 mL/min and crossflow of 1.5 mL/min. The eluted particles were detected by multi-angle light scattering (MALS) detector (HELLEOS II, Wyatt Technology Corp.Santa Barbara, CA, USA). The LS traces were recorded by ASTRA Software Version 7.1.3.25 (Wyatt Technology Europe, Dernbach Germany).\nMethod: BM1 RNA lipoplexes were prepared as described above.\nAll other RNA lipoplexes were cryoprotected by adding cryoprotection buffers with no EDTA disodium salt (groups 0 mM and 0.4 mM EDTA disodium salt) or with EDTA disodium salt in a ratio of 1 to 6.7 to generate different EDTA disodium salt concentrations in the final PD composition.\nMethod: RNA lipoplexes were prepared with increasing amounts of NaCl for condensation of the RNA and liposomes without acetic acid. […]"}, "[8]": {"conditions": "frozen with increasing amounts of cryoprotectant, Z-average, polydispersity, subvisible particles"}, "[9]": {"conditions": "70 mM NaCl, up to 10 times freezing"}, "[10]": {"conditions": "90 mM NaCl, up to 10 times freezing"}}, "note": "“Also recorded” adds a separate entry of the source. Read-outs that look alike come from different tables or passages of the source.", "data": [{"smiles": "CCCCCCCC/C=C\\CCCCCCCC(=O)OC[C@H](COP(=O)(O)OCCN)OC(=O)CCCCCCC/C=C\\CCCCCCCC", "note": "[DOPE, 1,2-di-(9Z-octadecenoyl)-sn-glycero-3-phosphoethanolamine]", "values": [{"measurement": "DOPE solubility in ethanol", "setting": "[1]", "value": 59, "unit": "mM"}]}, {"smiles": "OCC(O)CO", "note": "[Glycerin]", "values": [{"measurement": "stabilization of RNA lipoplexes during freezing", "setting": "[2]; [8]", "value": "can be used as cryoprotectants for RNA lipoplexes"}]}, {"smiles": "O=S(=O)(O)CCN1CCN(CCO)CC1", "note": "[HEPES, 2-[4-(2-hydroxyethyl)piperazin-1-yl]ethanesulfonic acid]", "values": [{"measurement": "stabilization of the RNA integrity by buffer system", "setting": "[3]", "value": "comparable stabilization of the RNA integrity"}, {"measurement": "stability of the RNA in RNA lipoplexes by buffer system", "setting": "[3]", "value": "best stability"}, {"measurement": "RNA stability in the drug product by buffer", "setting": "[3]; 61 days, pH 6.4 to 7.0, vs Histidine, MES, Na-Acetate", "value": "significantly enhanced RNA stability in the drug product"}]}, {"smiles": "N[C@@H](Cc1c[nH]cn1)C(=O)O", "note": "[Histidine]", "values": [{"measurement": "stabilization of the RNA integrity by buffer system", "setting": "[3]", "value": "slightly reduced stability"}, {"measurement": "stability of the RNA in RNA lipoplexes by buffer system", "setting": "[3]", "value": "lower stability"}]}, {"smiles": "CC(=O)O", "note": "[acetic acid]", "values": [{"measurement": "stability of DOPE in liposomes (DOPE ester hydrolysis)", "setting": "[4]; 0-3 mM acetic acid, 4° C., 25° C., 40° C., up to 6 months", "value": "Stability increases for all measured temperatures with increasing acetic acid concentration"}, {"measurement": "acetic acid concentration above which stabilization efficacy plateaus", "setting": "[4]; liposomes 0.9 mM total lipid", "value": "approx. 1 mM"}]}, {"smiles": "N=C(N)NCCC[C@H](N)C(=O)O", "note": "[arginine]", "values": [{"measurement": "stabilization of RNA lipoplexes during freezing", "setting": "[2]; [8]", "value": "clearly destabilizes the RNA lipoplexes"}]}, {"smiles": "O=C([O-])[O-].[Na+].[Na+]", "note": "[carbonate, sodium carbonate]", "values": [{"measurement": "stabilization of the RNA (RNA integrity) by buffering system", "setting": "[5]", "value": "did not result in comparable stabilization of the RNA"}]}, {"smiles": "O=C(O)[C@@H]1CCCN1", "note": "[proline]", "values": [{"measurement": "stabilization of RNA lipoplexes during freezing", "setting": "[2]", "value": "can be used as cryoprotectants for RNA lipoplexes"}]}, {"smiles": "O=P(O)(O)O", "note": "[sodium phosphate]", "values": [{"measurement": "stabilization of the RNA (RNA integrity) by buffering system", "setting": "[5]", "value": "comparable results"}]}, {"smiles": "OC[C@@H](O)[C@@H](O)[C@H](O)[C@@H](O)CO", "note": "[sorbitol]", "values": [{"measurement": "stabilization of RNA lipoplexes during freezing", "setting": "[2]; [8]", "value": "can be used as cryoprotectants for RNA lipoplexes; also recorded: stabilization efficacy of sorbitol is lower"}]}, {"smiles": "OC[C@H]1O[C@@](CO)(O[C@H]2O[C@H](CO)[C@@H](O)[C@H](O)[C@H]2O)[C@@H](O)[C@@H]1O", "note": "[sucrose]", "values": [{"measurement": "stabilization efficacy on long-term storage", "setting": "[6]", "value": "No difference in the stabilization efficacy"}, {"measurement": "sucrose concentration to ensure long-term stability of the drug product", "setting": "[7]", "value": "at least 12 % (w/v)"}, {"measurement": "preservation of particle size after a single freezing step", "setting": "[2]", "value": "acceptable preservation of particle size"}]}, {"smiles": "OC[C@H]1O[C@H](O[C@H]2O[C@H](CO)[C@@H](O)[C@H](O)[C@H]2O)[C@H](O)[C@@H](O)[C@@H]1O", "note": "[trehalose]", "values": [{"measurement": "stabilization efficacy on long-term storage", "setting": "[6]", "value": "No difference in the stabilization efficacy"}, {"measurement": "trehalose sufficient for stabilization of RNA lipoplex particle characteristics", "setting": "[2]; 50 mM NaCl, even after 10 times freezing", "value": "≥ 12.5", "unit": "%"}, {"measurement": "trehalose required for exact preservation of the particle size", "setting": "[2]; [9]", "value": "≥ 22.5", "unit": "%"}, {"measurement": "trehalose required for minimum stabilization", "setting": "[2]; [9]", "value": "≥ 12.5", "unit": "%"}, {"measurement": "exact preservation of the particle size", "setting": "[2]; [10]", "value": "could not be achieved even with the highest investigated concentration of 27.5%"}, {"measurement": "trehalose required for minimum stabilization", "setting": "[2]; [10]", "value": "≥ 15.0", "unit": "%"}, {"measurement": "preservation of particle size after a single freezing step", "setting": "[2]", "value": "acceptable preservation of particle size"}]}]}
